Data taken from patent US5705649A, “Protein staining compositions and methods” (Promega Corporation, priority 1995, dated 1998).

Columns and labels:
[1] = system: Promega Mid-Range Molecular Weight Markers; assay: Enhancement of staining of proteins in SDS-PAGE gels in 5% acetic acid
Protocol: The gels described above were placed in 5% acetic acid following the termination of the electrophoretic separation. Within one to two minutes the gel developed a light green background but the protein bands dramatically darkened to a green color. […] Again, the color of the background darkened to a greater degree when greater concentrations of dye were used.
The gels above (from Example 7) were placed in 5% acetic acid following termination of the electrophoretic separation. Within 1-2 minutes, all the gels turned light green and the color of the stained bands intensified such that all proteins were visible--even in the lane containing 0.25 μg protein/band.
The gels above (Example 9) were placed in 5% acetic acid following termination of the electrophoretic separation. Within 1-2 minutes, all the gels turned light green and the color of the stained bands intensified such that all proteins were visible--even in the lanes containing 0.25 μg protein/band.

[2] = system: Promega Mid Range Molecular Weight Markers; assay: Rapid enhancement of the staining of proteins with low residual color in the gel
Protocol: In order to develop such a method, several 10% SDS-PAGE gels made as described in Example 5 were made and loaded with samples made as described therein with the following changes: the sample loading size was reduced to 5 μl; and the solutions were made to contain 1.0, 0.50, 0.25, and 0.125 μg of each protein band of Promega Mid Range Molecular Weight Markers in 5 μl of the sample. Each gel was loaded such that duplicate panels of samples containing the various concentrations of protein were present in 4 consecutive lanes. The gels were run as described above and the gel was cut between the duplicate sample panels. A gel segment containing one panel was placed in each of the following solutions: 30 ml of 2% glacial acetic acid (A); 30 ml of 2% glacial acetic acid in 10% methanol (B); 2% glacial acetic acid in 20% methanol (C); 2% glacial acetic acid in 30% methanol (D); 30 ml of water (E); 30 ml of 10% methanol (F); 30 ml of 20% methanol (G); and 30 ml of 30% methanol (H). The solutions were incubated with the gel segments for 10 minutes at room temperature and gently rotated at 40 rpm to prevent settling of the gel segments in the containers. […]
Protocols using other dyes that have been developed for the sensitive detection of protein sometimes employ the incubation of the gel in solutions containing the stain followed by incubation of the gel in solutions lacking the stain. In order to determine if such a protocol could be used to allow even lower levels of protein to be detected using Promega Green 1, the following study was performed. […]

CCCCCCCC(=O)N(c1ccc(OCC)cc1)c1ccc(C(=C2C=CC(=[N+](CC)Cc3cccc(S(=O)(=O)[O-])c3)C=C2)c2ccc(N(CC)Cc3cccc(S(=O)(=O)O)c3)cc2)cc1 [Promega Green 1]
visibility of protein bands after enhancement ([1]; 5% acetic acid, one to two minutes): All of the protein bands in all the lanes having sample were now visible | staining after overnight incubation ([1]; 5% acetic acid, overnight): appeared to darken slightly | overall performance ([1]; Examples 5-10): most desirable properties of the compounds tested | amount of protein in a band that can be detected ([2]; methanol/acetic acid solutions A-H, 10 min then 60 min): less than 125 ng | lowest protein per band visible ([2]; post-incubation with dye 1:5000 and 1:10,000 in 30-50% methanol, then without dye): 62.5 ng | background staining ([2]; solution set H (30% methanol, then 2% acetic acid in 30% methanol)): very little background staining remaining
